Each structure is given as a SMILES string. In brackets after ≈: the same amount, converted by molar mass. Where two headings read alike, the source gives them in different places. A value given as a limit tells only on which side of the number the result lay.

The subject of one data set is A. baumanii ATCC17961. Nature of the data set: Broth microdilution MIC, A. baumanii. Type of data set: cell-based, Acinetobacter baumanii. As to conditions: 37° C., 18-20 h, average of three measurements. A general note: In broth dilution the organism is exposed to a series of concentrations in liquid medium.
A further data set concerns S. aureus SG511. Nature of the data set: Broth microdilution MIC, S. aureus. As to conditions: 37° C., 18-20 h, average of three measurements. Type of data set: cell-based, Staphylococcus aureus.
Another data set relates to M. aurum (SB66). Nature of the data set: Broth microdilution MIC, M. aurum. It is filed as cell-based, Mycobacterium aurum. As to conditions: 37° C., 18-20 h, average of three measurements, in µM.
A further data set deals with M. vaccae IMET10670. Nature of the data set: Broth microdilution MIC, M. vaccae. It is filed as cell-based, Mycobacterium vaccae. As to conditions: 37° C., 18-20 h, average of three measurements.
The subject of the next data set is M. luteus ATCC10240. Nature of the data set: Broth microdilution MIC, M. luteus. As to conditions: 37° C., 18-20 h, average of three measurements. It is filed as cell-based.
Another data set relates to M. smegmatis (MC2155). Nature of the data set: Broth microdilution MIC, M. smegmatis. It is filed as cell-based, Mycobacterium smegmatis. As to conditions: 37° C., 18-20 h, average of three measurements.
For another data set, the system named is P. aeruginosa KW799/61. Nature of the data set: Broth microdilution MIC, P. aeruginosa. It is filed as cell-based, Pseudomonas aeruginosa. As to conditions: 37° C., 18-20 h, average of three measurements.
Data set [1] concerns M. bovis BCG (ATCC: 35734). It is filed as cell-based, Mycobacterium bovis. As to conditions: for In vitro activity (MIC) M. bovis: M. bovis BCG, 7H12, 37° C., 6 days.
Another data set relates to HeLa. Nature of the data set: Cytotoxicity, crystal violet biomass reduction assay, HeLa. Type of data set: cell-based. As to conditions: 72 h. On the procedure: (§1) Cytotoxicity Assays: against PC3, HeLa and MCF-7 cell lines.
(§2) In vitro activities against cells were determined with a crystal violet biomass reduction assay. Cells were grown in media supplemented with fetal bovin serum and penicillin/streptromycin antibiotic. 100 μL of cell inoculums was added to each well. After cell inoculation, the 96 well micro-titer plates were incubated at 37° C. and 5% CO2 with 95% humidity for 24 h prior to addition of compounds. A stock solution of each compound was made in DMSO and then diluted with media to give a 40 μM solution. 100 μL of DMSO/media solutions of compounds were added in replicates of 3. 100 μL solution was added to the first set of wells. Two-fold serial dilutions were made down each row of the micro-titer plate. The cells were incubated in a 37° C., 5% CO2 and 95% humidity for 72 h. The media was removed and the cells were fixed with glutaraldehyde, rinsed, stained with crystal violet, rinsed and air dried. The stain was eluted with a solution of Triton-X-100 and optical density was measured at 595 nm. Trichostatin A was used as a positive control for all the cell lines tested.

The next data set concerns MCF-7 (breast cancer). Nature of the data set: Cytotoxicity, crystal violet biomass reduction assay, MCF-7. Type of data set: cell-based. As to conditions: 72 h. On the procedure:
as §1, §2

The subject of the next data set is PC3 (prostate cancer). Nature of the data set: Cytotoxicity, crystal violet biomass reduction assay, PC3. It is filed as cell-based. As to conditions: 72 h. On the procedure:
as §1, §2

The next data set has as its system M. marinum (ATCC: 927). Nature of the data set: NTM MIC assay, M. marinum. As to conditions: for In vitro activity (MIC) M. marinum: Middlebrook 7H9 with OADC, 30° C., 5 days. It is filed as cell-based, Mycobacterium marinum.
The subject of a further data set is Mtb H37Rv (ATCC#27294). Nature of the data set: Microplate Alamar Blue assay (MABA), replicating TB. It is filed as cell-based, Mycobacterium tuberculosis. As to conditions: for MIC: Mycobacterium tuberculosis, H37Rv, reduction in fluorescence of ≧90%. A general note: The colour change of resazurin is a common sign of viable cells or microbes.
A further data set has as its system M. kansasii (ATCC:12478). Nature of the data set: NTM MIC assay, M. kansasii. It is filed as cell-based, Mycobacterium kansasii. As to conditions: for In vitro activity (MIC) M. kansasii: Middlebrook 7H9 with OADC, 37° C., 6 days.
The mark [2] stands for this setting: 7H12 medium, read-out: MABA:MIC 7H12.
[3] abbreviates: glycerol-alanine-salts medium, read-out: MABA:MIC GAS.

The molecule `O=C(O)c1cn(C2CC2)c2cc(N3CCNCC3)c(F)cc2c1=O` [Ciprofloxacin, reference compound] came in with an In vitro activity (MIC) A. baumanii ATCC17961 in the data set with A. baumanii ATCC17961 of 0.156 µM. This molecule had an In vitro activity (MIC) S. aureus SG511 in the data set with S. aureus SG511 of 0.32 µM. Further, the “In vitro activity (MIC) M. aurum” value in the data set on M. aurum (SB66) came to 0.020. Moreover, the In vitro activity (MIC) M. vaccae IMET10670 with M. vaccae IMET10670 amounted to 0.32 µM. In addition, the In vitro activity (MIC) M. luteus ATCC10240 in the data set with M. luteus ATCC10240 is 1.25 µM. The molecule also gave an In vitro activity (MIC) M. smegmatis with M. smegmatis (MC2155) of 0.32 µM. Further, in the data set with P. aeruginosa KW799/61, the “In vitro activity (MIC) P. aeruginosa KW799/61” value is 0.156.

`C[C@H]1COC2(CCN(c3nc(=O)c4cc(C(F)(F)F)cc([N+](=O)[O-])c4s3)CC2)O1` [Compound 1, BTZ043, reference compound]: in the data set with A. baumanii ATCC17961, the In vitro activity (MIC) A. baumanii ATCC17961 was more than 200 µM. The molecule also showed an In vitro activity (MIC) S. aureus SG511 with S. aureus SG511 of more than 0.2 µM. In data set [1], the “Activity against M. bovis (in words)” value was “impressive activity” and the In vitro activity (MIC) M. bovis was less than 0.02 µM. Also, the “In vitro activity (MIC) M. aurum” value in the data set on M. aurum (SB66) is given as more than 200. Besides, in the data set with HeLa, the “Cytotoxicity HeLa” value is more than 20. Moreover, the “Cytotoxicity MCF-7” value in the data set with MCF-7 (breast cancer) was more than 20. For the same molecule, in the data set with PC3 (prostate cancer), the “Cytotoxicity PC3” value was more than 20. For the same molecule, the In vitro activity (MIC) M. marinum with M. marinum (ATCC: 927) was determined as 0.037 µM. Besides, the “Activity against M. tuberculosis (in words)” value in the data set on Mtb H37Rv (ATCC#27294) is on record as “impressive activity”. In the data set with Mtb H37Rv (ATCC#27294) (setting [2]), the minimal inhibitory concentration (MIC) was less than 0.02 µM. Further, the minimal inhibitory concentration (MIC) with Mtb H37Rv (ATCC#27294) (setting [3]) was less than 0.02 µM. In the data set on M. kansasii (ATCC:12478), this molecule showed an In vitro activity (MIC) M. kansasii of less than 0.02 µM. This molecule also had an In vitro activity (MIC) M. vaccae IMET10670 with M. vaccae IMET10670 of 0.002 µM. Moreover, the In vitro activity (MIC) M. luteus ATCC10240 with M. luteus ATCC10240 was more than 200 µM. The molecule further returned an In vitro activity (MIC) M. smegmatis in the data set on M. smegmatis (MC2155) of 0.002 µM. Further, the “In vitro activity (MIC) P. aeruginosa KW799/61” value in the data set with P. aeruginosa KW799/61 is more than 200.

In turn, `C[C@H]1COC2(CCN(c3nc(=O)c4cc(C(F)(F)F)cc([N+](=O)[O-])c4[s+]3[O-])CC2)O1` (stereo partly drawn) [Compound 5, 2-((S)-2-Methyl-1,4-dioxa-8-azaspiro[4.5]decan-8-yl)-8-nitro-6-(trifluoromethyl)-4H-benzo[e][1,3]thiazin-4-one 1-oxide] displayed an In vitro activity (MIC) A. baumanii ATCC17961 in the data set with A. baumanii ATCC17961 of more than 200 µM. The molecule also gave an In vitro activity (MIC) S. aureus SG511 with S. aureus SG511 of 12.5 µM. In [1], the “Activity against M. bovis (in words)” value is given as “impressive activity” and the In vitro activity (MIC) M. bovis came out at 0.21 µM. For the same molecule, the “In vitro activity (MIC) M. aurum” value with M. aurum (SB66) was 3.13-12.5. In addition, in the data set with HeLa, the “Cytotoxicity HeLa” value was more than 20. The “Cytotoxicity MCF-7” value in the data set on MCF-7 (breast cancer) is reported as more than 20. Besides, the “Cytotoxicity PC3” value in the data set with PC3 (prostate cancer) was determined as 15. In the data set on M. marinum (ATCC: 927), the “Activity against M. marinum (in words)” value is given as “demonstrated activity” and the In vitro activity (MIC) M. marinum was determined as 0.19 µM. Further, the “Activity against M. tuberculosis (in words)” value with Mtb H37Rv (ATCC#27294) is reported as “impressive activity”. Further, the minimum inhibitory concentration (MIC) with Mtb H37Rv (ATCC#27294) (setting [2]) was determined as 0.06 µM (≈ 0.0268 µg/mL). Moreover, the MIC in the data set on Mtb H37Rv (ATCC#27294) (setting [3]) was less than 0.02 µM. In addition, in the data set with M. kansasii (ATCC:12478), the “Activity against M. kansasii (in words)” value was “demonstrated activity” and the In vitro activity (MIC) M. kansasii was found to be 0.3 µM. The molecule also returned an In vitro activity (MIC) M. vaccae IMET10670 in the data set on M. vaccae IMET10670 of less than 0.013 µM. Moreover, the In vitro activity (MIC) M. luteus ATCC10240 with M. luteus ATCC10240 is 50 µM. In the data set on M. smegmatis (MC2155), this molecule registered an In vitro activity (MIC) M. smegmatis of less than 0.013 µM. Moreover, in the data set on P. aeruginosa KW799/61, the “In vitro activity (MIC) P. aeruginosa KW799/61” value is given as more than 200.

For `C[C@H]1COC2(CCN(C3=NC(=O)c4cc(C(F)(F)F)cc([N+](=O)[O-])c4S3(=O)=O)CC2)O1` [Compound 6, (S)-2-(2-Methyl-1,4-dioxa-8-azaspiro[4.5]decan-8-yl)-8-nitro-6-(trifluoromethyl)-4H-benzo[e][1,3]thiazin-4-one 1,1-dioxide], the In vitro activity (MIC) A. baumanii ATCC17961 in the data set with A. baumanii ATCC17961 was more than 200 µM. For the same molecule, the In vitro activity (MIC) S. aureus SG511 with S. aureus SG511 amounted to 0.2 µM. The “Activity against M. bovis (in words)” value in data set [1] was “only weakly active”. The “In vitro activity (MIC) M. aurum” value with M. aurum (SB66) is more than 200. Further, the “Cytotoxicity HeLa” value with HeLa is more than 20. In addition, in the data set on MCF-7 (breast cancer), the “Cytotoxicity MCF-7” value is reported as more than 20. Moreover, the “Cytotoxicity PC3” value in the data set on PC3 (prostate cancer) was more than 20. Besides, in the data set with M. marinum (ATCC: 927), the “Activity against M. marinum (in words)” value is “either inactive or weakly inactive”. Besides, in the data set on Mtb H37Rv (ATCC#27294), the “Activity against M. tuberculosis (in words)” value was “only weakly active”. Further, the MIC in the data set on Mtb H37Rv (ATCC#27294) (setting [2]) is 1.46 µM (≈ 0.677 µg/mL); with Mtb H37Rv (ATCC#27294) (setting [3]), 0.75 µM. Besides, the “Activity against M. kansasii (in words)” value with M. kansasii (ATCC:12478) is “either inactive or weakly inactive”. Moreover, the In vitro activity (MIC) M. vaccae IMET10670 in the data set with M. vaccae IMET10670 is less than 0.013 µM. The same molecule registered an In vitro activity (MIC) M. luteus ATCC10240 in the data set with M. luteus ATCC10240 of more than 200 µM. For the same molecule, the In vitro activity (MIC) M. smegmatis in the data set with M. smegmatis (MC2155) was more than 0.5 µM. For the same molecule, in the data set with P. aeruginosa KW799/61, the “In vitro activity (MIC) P. aeruginosa KW799/61” value is recorded as more than 200.

Take `NNC(=O)c1ccncc1` [INH]: the In vitro activity (MIC) M. bovis in [1] is 0.5 µM. The In vitro activity (MIC) M. marinum in the data set with M. marinum (ATCC: 927) was more than 8 µM. In addition, the MIC in the data set with Mtb H37Rv (ATCC#27294) (setting [2]) is 0.1 µM (≈ 0.0137 µg/mL); in the data set with Mtb H37Rv (ATCC#27294) (setting [3]) it was 0.03 µM. The molecule further showed an In vitro activity (MIC) M. kansasii with M. kansasii (ATCC:12478) of 3.86 µM.

In the case of `CO[C@H]1/C=C/O[C@@]2(C)Oc3c(C)c(O)c4c(O)c(c(/C=N/N5CCN(C)CC5)c(O)c4c3C2=O)NC(=O)/C(C)=C\C=C\[C@H](C)[C@H](O)[C@@H](C)[C@@H](O)[C@@H](C)[C@H](OC(C)=O)[C@@H]1C` [Rifampin], in data set [1], the In vitro activity (MIC) M. bovis was 0.02 µM. In addition, the In vitro activity (MIC) M. marinum with M. marinum (ATCC: 927) is 0.23 µM. The MIC in the data set with Mtb H37Rv (ATCC#27294) (setting [2]) worked out at 0.05 µM (≈ 0.0411 µg/mL); in the data set on Mtb H37Rv (ATCC#27294) (setting [3]) it was 0.04 µM. The same molecule had an In vitro activity (MIC) M. kansasii in the data set on M. kansasii (ATCC:12478) of 0.1 µM.

For orientation: MIC means the smallest concentration in the dilution series that meets the test's criterion for growth inhibition.

Values taken from US9481683B2, “1,3-benzothiazinone sulfoxide and sulfone compounds” (UNIVERSITY OF NOTRE DAME DU LAC, priority 2014, dated 2016).
